# Key:
# HL60 cells = assay: Time-of-flight (TOF) optophoretic testing of HL60 cells treated with DMSO; type: cell-based; conditions: 1% DMSO, after 40 hours of treatment, compared to non-treated HL60 cells (FIGS. 44 and 45)
# Description: The system includes multiple, preferably three, detecting positions, 31, 32 and 33. The detecting positions 31, 32, 33, may be associated with detection of times, e.g., t1, t2, t3. The times may be absolute, relative or elapsed. The two outermost detecting positions, i.e., 31 and 33 in this example, are separated by a distance L. A representative length L when detecting biological particles would be substantially 200 microns or less. The difference between the first two detecting positions t1, t2, define a time interval T1. T1 may also be associated with a first detection zone corresponding to the motion of the particle 36 through the zone T1. The second and third detecting positions t2, t3, define a second detection zone T2. The second detection zone also corresponds to the time difference between t2, t3. In one preferred embodiment, the distance between t2 t3 is equal to the distance between t1 t2. In operation, the cell or particle 36 flows from the inlet 22 through the channel 20 through the outlet 24. For biological detection purposes, representative particle speeds are from substantially 50 to substantially 200 microns per second. As the cell or particle 36 flows through the first detection zone T1, the time-of-flight through that zone is measured, that is the time it takes for the cell or particle 36 to move from position t1 to t2. An optical gradient 38 is disposed within zone T2. […]
# T cells = assay: Time-of-flight (TOF) optophoretic testing of activated and unactivated T cells; type: cell-based; conditions: T cells activated with 0.5 μml PMA and 50 ng/ml ionomycin together, overnight, compared to unstimulated T cells (FIG. 46)
# Description: The system includes multiple, preferably three, detecting positions, 31, 32 and 33. The detecting positions 31, 32, 33, may be associated with detection of times, e.g., t1, t2, t3. The times may be absolute, relative or elapsed. The two outermost detecting positions, i.e., 31 and 33 in this example, are separated by a distance L. A representative length L when detecting biological particles would be substantially 200 microns or less. The difference between the first two detecting positions t1, t2, define a time interval T1. T1 may also be associated with a first detection zone corresponding to the motion of the particle 36 through the zone T1. The second and third detecting positions t2, t3, define a second detection zone T2. The second detection zone also corresponds to the time difference between t2, t3. In one preferred embodiment, the distance between t2 t3 is equal to the distance between t1 t2.
# In operation, the cell or particle 36 flows from the inlet 22 through the channel 20 through the outlet 24. For biological detection purposes, representative particle speeds are from substantially 50 to substantially 200 microns per second. As the cell or particle 36 flows through the first detection zone T1, the time-of-flight through that zone is measured, that is the time it takes for the cell or particle 36 to move from position t1 to t2. An optical gradient 38 is disposed within zone T2. […]
SMILES,TOF ratio t2/t1 (HL60 cells),TOF ratio t2/t1 (T cells)
"C[S+](C)[O-] [DMSO, dimethyl sulfoxide]",lower TOF ratio,
"CCCCCCCCCCCCCC(=O)O[C@@H]1[C@@H](C)[C@@]2(O)[C@@H](C=C(CO)C[C@]3(O)C(=O)C(C)=C[C@@H]23)[C@@H]2C(C)(C)[C@]12OC(C)=O [PMA, Phorbol mystirate acetate]",,lower TOF ratio
C[C@H](CCC(=O)O)C[C@H](C)C[C@H](C)C(=O)/C=C(\O)[C@H](C)C[C@H](C)C/C=C/[C@@H](C)[C@@H](O)[C@@H](C)[C@@H](O)C[C@@H]1CC[C@@](C)([C@H]2CC[C@@](C)([C@@H](C)O)O2)O1 [ionomycin],,lower TOF ratio

# From US20040067167A1, “Methods and apparatus for optophoretic diagnosis of cells and particles” (Genoptix, Inc., priority 2002, published 2004)
